Measured values: patent US6737383B1, “Herbicidal oxadiazolidines” (priority 1999, dated 2004)

Legend:
[1] = tested on: blackgrass; test: Test B pre/postemergence blackgrass; assay type: in vivo, Alopecurus myosuroides
How it was run: (§1)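 Test chemicals in a non-phytotoxic solvent mixture with surfactant were sprayed preemergence onto planted seeds and postemergence onto plants 2 to 18 cm tall (1- to 4-leaf stage). After twelve to sixteen days in a greenhouse, injury was visually rated against untreated controls from 0 (no effect) to 10 (complete control).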

[2] = tested on: giant foxtail; test: Test B pre/postemergence giant foxtail; assay type: in vivo, Setaria faberii
How it was run: as §1

[3] = tested on: rice; test: Test B flood test rice; assay type: in vivo, Oryza sativa
How it was run: (§2)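 Flood test on plants grown to the 2-leaf stage; treated plants kept in greenhouse twelve to sixteen days, then visually rated against controls on a 0 (no effect) to 10 (complete control) scale.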

[4] = tested on: corn; test: Test B pre/postemergence corn; assay type: in vivo, Zea mays
How it was run: as §1

[5] = tested on: sugar beet; test: Test B pre/postemergence sugar beet; assay type: in vivo, Beta vulgaris
How it was run: as §1

[6] = tested on: purple nutsedge; test: Test B pre/postemergence purple nutsedge; assay type: in vivo, Cyperus rotundus
How it was run: as §1

[7] = tested on: wheat; test: Test B pre/postemergence wheat; assay type: in vivo, Triticum aestivum
How it was run: as §1

[8] = tested on: smallflower flatsedge; test: Test B flood test smallflower flatsedge; assay type: in vivo, Cyperus difformis
How it was run: as §2

[9] = tested on: morningglory; test: Test B pre/postemergence morningglory; assay type: in vivo, Ipomoea hederacea
How it was run: as §1

[10] = tested on: pigweed; test: Test B pre/postemergence pigweed; assay type: in vivo, Amaranthus retroflexus
How it was run: as §1

[11] = tested on: surinam grass; test: Test B pre/postemergence surinam grass; assay type: in vivo, Brachiaria decumbens
How it was run: as §1

[12] = tested on: crabgrass; test: Test B pre/postemergence crabgrass; assay type: in vivo, Digitaria sanguinalis
How it was run: as §1

[13] = tested on: cocklebur; test: Test B pre/postemergence cocklebur; assay type: in vivo, Xanthium strumarium
How it was run: as §1

[14] = tested on: velvetleaf; test: Test B pre/postemergence velvetleaf; assay type: in vivo, Abutilon theophrasti
How it was run: as §1

[15] = tested on: rape; test: Test B pre/postemergence rape; assay type: in vivo, Brassica napus
How it was run: as §1

[16] = tested on: duck salad; test: Test B flood test duck salad; assay type: in vivo, Heteranthera limosa
How it was run: as §2

[17] = Postemergence, Rate 62 g/ha, scale 0 to 10, 0 is no effect, 10 is complete control
[18] = Postemergence, Rate 250 g/ha, scale 0 to 10, 0 no effect, 10 complete control
[19] = Preemergence, Rate 31 g/ha, visual rating, scale 0 to 10 (0 no effect, 10 complete control)
[20] = Preemergence, Rate 62 g/ha, scale 0 to 10, 0 is no effect, 10 is complete control
[21] = Preemergence, Rate 125 g/ha, scale 0 to 10 (0 no effect, 10 complete control)
[22] = Preemergence, Rate 250 g/ha, scale of 0 to 10 where 0 is no effect and 10 is complete control
[23] = Rate 31 g/ha, Postemergence, scale 0 to 10
[24] = Rate 125 g/ha, Postemergence, scale 0 to 10, 0 no effect, 10 complete control
[25] = Rate 125 g/ha, Postemergence section (flood test species), scale 0 to 10, 0 no effect, 10 complete control
[26] = Rate 500 g/ha, Postemergence section of Table B, 0 to 10 scale (0 no effect, 10 complete control)
[27] = flood test, listed under Postemergence, Rate 250 g/ha, scale 0 to 10, 0 no effect, 10 complete control

SMILES: COc1ccc(-n2c(=O)on(C(=O)N(c3ccc(F)cc3)C(C)C)c2=O)c(OC)c1 [Compound 33]
- Blackgrass plant response rating [1, 17]: 4
- Blackgrass plant response rating [1, 18]: 5
- Blackgrass plant response rating [1, 19]: 0
- Plant response rating, Blackgrass [1, 20]: 0
- Plant response rating, Blackgrass [1, 21]: 0
- Plant response rating, Blackgrass [1, 22]: 0
- Blackgrass plant response rating [1, 23]: 3
- Blackgrass plant response rating [1, 24]: 5
- Giant foxtail plant response rating [2, 17]: 0
- Giant foxtail plant response rating [2, 18]: 3
- Giant foxtail plant response rating [2, 19]: 3
- Plant response rating, Giant foxtail [2, 20]: 4
- Plant response rating, Giant foxtail [2, 21]: 6
- Plant response rating, Giant foxtail [2, 22]: 9
- Giant foxtail plant response rating [2, 23]: 0
- Giant foxtail plant response rating [2, 24]: 1
- Rice plant response rating [3, 17]: 0
- Rice plant response rating [3, 25]: 0
- Rice plant response rating [3, 26]: 4
- Rice plant response rating [3, 27]: 2
- Corn plant response rating [4, 17]: 0
- Corn plant response rating [4, 18]: 0
- Corn plant response rating [4, 19]: 0
- Plant response rating, Corn [4, 20]: 0
- Plant response rating, Corn [4, 21]: 0
- Plant response rating, Corn [4, 22]: 0
- Corn plant response rating [4, 23]: 0
- Corn plant response rating [4, 24]: 0
- Sugarbeets plant response rating [5, 17]: 0
- Sugarbeets plant response rating [5, 18]: 6
- Sugarbeets plant response rating [5, 19]: 0
- Plant response rating, Sugarbeets [5, 20]: 0
- Plant response rating, Sugarbeets [5, 21]: 0
- Plant response rating, Sugarbeets [5, 22]: 0
- Sugarbeets plant response rating [5, 24]: 2
- Nutsedge plant response rating [6, 17]: 0
- Nutsedge plant response rating [6, 18]: 0
- Nutsedge plant response rating [6, 19]: 0
- Plant response rating, Nutsedge [6, 20]: 0
- Plant response rating, Nutsedge [6, 21]: 0
- Plant response rating, Nutsedge [6, 22]: 0
- Nutsedge plant response rating [6, 23]: 0
- Nutsedge plant response rating [6, 24]: 0
- Wheat plant response rating [7, 17]: 0
- Wheat plant response rating [7, 18]: 0
- Wheat plant response rating [7, 19]: 0
- Plant response rating, Wheat [7, 20]: 0
- Plant response rating, Wheat [7, 21]: 0
- Plant response rating, Wheat [7, 22]: 0
- Wheat plant response rating [7, 24]: 0
- S. Flatsedge plant response rating [8, 17]: 0
- S. Flatsedge plant response rating [8, 25]: 0
- S. Flatsedge plant response rating [8, 27]: 2
- Morningglory plant response rating [9, 17]: 3
- Morningglory plant response rating [9, 18]: 9
- Morningglory plant response rating [9, 19]: 0
- Plant response rating, Morningglory [9, 20]: 0
- Plant response rating, Morningglory [9, 21]: 0
- Plant response rating, Morningglory [9, 22]: 1
- Morningglory plant response rating [9, 23]: 3
- Morningglory plant response rating [9, 24]: 8
- Redroot pigweed plant response rating [10, 17]: 0
- Redroot pigweed plant response rating [10, 18]: 3
- Redroot pigweed plant response rating [10, 19]: 0
- Plant response rating, Redroot pigweed [10, 20]: 0
- Plant response rating, Redroot pigweed [10, 21]: 0
- Plant response rating, Redroot pigweed [10, 22]: 0
- Redroot pigweed plant response rating [10, 23]: 0
- Redroot pigweed plant response rating [10, 24]: 2
- B. signalgrass plant response rating [11, 17]: 0
- B. signalgrass plant response rating [11, 18]: 1
- B. signalgrass plant response rating [11, 19]: 0
- Plant response rating, B. signalgrass [11, 20]: 0
- Plant response rating, B. signalgrass [11, 21]: 0
- Plant response rating, B. signalgrass [11, 22]: 7
- B. signalgrass plant response rating [11, 23]: 0
- B. signalgrass plant response rating [11, 24]: 0
- Crabgrass plant response rating [12, 17]: 1
- Crabgrass plant response rating [12, 18]: 2
- Crabgrass plant response rating [12, 19]: 3
- Plant response rating, Crabgrass [12, 20]: 3
- Plant response rating, Crabgrass [12, 21]: 3
- Plant response rating, Crabgrass [12, 22]: 7
- Crabgrass plant response rating [12, 23]: 0
- Crabgrass plant response rating [12, 24]: 2
- Cocklebur plant response rating [13, 17]: 0
- Cocklebur plant response rating [13, 18]: 6
- Cocklebur plant response rating [13, 19]: 0
- Plant response rating, Cocklebur [13, 20]: 0
- Plant response rating, Cocklebur [13, 21]: 0
- Plant response rating, Cocklebur [13, 22]: 0
- Cocklebur plant response rating [13, 23]: 0
- Cocklebur plant response rating [13, 24]: 0
- Velvetleaf plant response rating [14, 17]: 0
- Velvetleaf plant response rating [14, 18]: 2
- Velvetleaf plant response rating [14, 19]: 0
- Plant response rating, Velvetleaf [14, 20]: 0
- Plant response rating, Velvetleaf [14, 21]: 0
- Plant response rating, Velvetleaf [14, 22]: 0
- Velvetleaf plant response rating [14, 24]: 1
- Rape plant response rating [15, 17]: 0
- Rape plant response rating [15, 18]: 3
- Rape plant response rating [15, 19]: 0
- Plant response rating, Rape [15, 20]: 0
- Plant response rating, Rape [15, 21]: 0
- Plant response rating, Rape [15, 22]: 0
- Rape plant response rating [15, 23]: 0
- Rape plant response rating [15, 24]: 0
- Ducksalad plant response rating [16, 17]: 0
- Ducksalad plant response rating [16, 25]: 0
- Ducksalad plant response rating [16, 26]: 0
- Ducksalad plant response rating [16, 27]: 0
